Experiments:
Format in all cases: cell-based
S. enteritidis = assay: Spot Test, antagonistic activity of isolated signal peptides; settings: isolated signal peptide
Protocol: The antagonistic activity of the bacteriocins produced when using the signal peptide and an inducer strain of bacteria against C. jejuni and S. enteritidis was assessed using a Spot Test. The steps included taking various concentrations of pure preparation (μg/ml) of the bacteriocin in approximately 10 microliters of volume plated onto blood-supplemented Campylobacter agar or Nutrient agar (MPA or Meta Peptone Agar) previously seeded with cells of target bacteria. Plates containing cultures of C. jejuni were grown at about 42° C., under microaerobic conditions. Plates containing S. enteritidis were grown at about 37° C. under aerobic conditions. Activity of the bacteriocin was expressed in arbitrary units (AU) per one milliliter of the preparation at which a visible zone of inhibition of the growth of culture appears (Henderson et al., Archives of Biochemistry and Biophysics, Volume 295, 5-12, 1992; herein incorporated by reference). Specific activity can also expressed as arbitrary units per milligram of pure bacteriocin.
Its activity was about 200 AU/ml and its molecular weight was about 2.5 kDa, as determined by SDS-PAGE electrophoresis. The isoelectric point (pI) was about 7.9 (FIGS. 1A and 1B).
Its molecular weight was about 3.1 kDa as measured by SDS-PAGE and the isoelectric point (pI) was about 8.1 (FIGS. 2A and 2B).
Its molecular weight was about 2.1 kDa as determined by SDS-PAGE electrophoresis and its isoelectric point was about 8.9 (FIGS. 3A and 3B).

[1] = system: Lactobacillus salivarius PVD-32; assay: Influence of signal peptide on bacteriocin OR-7 production, flask culture (fraction protein at 215 nm, activity by Spot Test against C. jejuni and S. enteritidis)
[2] = system: Enterococcus faecium LWP 50-52; assay: Influence of signal peptide on bacteriocin 50-52 production, flask culture (fraction protein at 215 nm, activity by spot-test against C. jejuni and S. enteritidis)
[3] = system: Streptococcus cricetus LWP 760; assay: Influence of signal peptide on bacteriocin 760 production, flask culture (fraction protein at 215 nm, activity by Spot Test against C. jejuni and S. enteritidis)
[4] = 10% B-B, producer PVD-32 + inducer LWP-252, LWP 760 peptide 0.1 mg
[5] = LWP 50-52 + LWP 320, LWP 760 peptide 0.1 mg/ml
[6] = LWP 760 + LWP320, 0.001 mg peptide
[7] = LWP 760 + LWP 320, 0.001 mg peptide added after about 2 hours
[8] = LWP 760 + LWP 320, 0.001 mg peptide added after about 4 hours
[9] = LWP 760 + LWP 320, 0.001 mg peptide added after about 6 hours
[10] = LWP 760 + LWP 320, 0.01 mg peptide
[11] = LWP 760 + LWP 320, 0.01 mg peptide added after about 2 hours
[12] = LWP 760 + LWP 320, 0.01 mg peptide added after about 4 hours
[13] = LWP 760 + LWP 320, 0.01 mg peptide added after about 6 hours
[14] = LWP 760 + LWP 320, 0.1 mg peptide
[15] = LWP 760 + LWP 320, 0.1 mg peptide added after about 2 hours
[16] = LWP 760 + LWP 320, 0.1 mg peptide added after about 4 hours
[17] = LWP 760 + LWP 320, 0.1 mg peptide added after about 6 hours
[18] = LWP 760, no inducer, 0.001 mg peptide
[19] = LWP 760, no inducer, 0.001 mg peptide added after about 2 hours
[20] = LWP 760, no inducer, 0.001 mg peptide added after about 4 hours
[21] = LWP 760, no inducer, 0.001 mg peptide added after about 6 hours
[22] = LWP 760, no inducer, 0.01 mg peptide
[23] = LWP 760, no inducer, 0.01 mg peptide added after about 2 hours
[24] = LWP 760, no inducer, 0.01 mg peptide added after about 4 hours
[25] = LWP 760, no inducer, 0.01 mg peptide added after about 6 hours
[26] = LWP 760, no inducer, 0.1 mg peptide
[27] = LWP 760, no inducer, 0.1 mg peptide add after about 6 hours
[28] = LWP 760, no inducer, 0.1 mg peptide added after about 2 hours
[29] = LWP 760, no inducer, 0.1 mg peptide added after about 4 hours

## WNKYKTNWVLSVCNTGCACAAVKGLT (listed as Streptococcus cricetus) [LWP 760 Signal Peptide, signal peptide isolated from Streptococcus cricetus LWP 760, stimulates bacteriocin 760 production]
S. enteritidis
  antagonistic activity: did not possess antagonistic activity
[1]; [4]
  Activity: 102,400 AU/ml
  Protein Concentration: 0.19 Mg/ml
  Protein increase vs. Control: 0.95
  Specific Activity: 538,947 AU/mg
  mg protein/liter: 62.7 mg protein/liter
[1]; signal peptide of another strain added to PVD-32 + LWP-252
  yield of bacteriocin OR-7 versus the control: does not increase
[2]; [5]
  Activity: 819,200 AU/ml
  Protein Concentration: 0.25 mg/mL
  Protein increase vs. Control: 1
  Specific Activity: 3,276,800 AU/mg
  mg protein/liter: 82.5 mg protein/liter
[2]; signal peptide of another strain added to LWP 50-52 + LWP 320
  yield of bacteriocin 50-52 versus the control: did not increase
[3]; [6]
  Activity: 1,638,840 AU/ml
  Increase in amount of protein vs. control: 1.06
  Protein Concentration: 0.32 mg/mL
  Protein Produced from 1 liter Culture Fluid: 105.6 mg
  Specific Activity: 5,121,375 Au/mg
[3]; [7]
  Activity: 1,638,840 AU/ml
  Increase in amount of protein vs. control: 1.06
  Protein Concentration: 0.32 mg/mL
  Protein Produced from 1 liter Culture Fluid: 105.6 mg
  Specific Activity: 5,121,375 Au/mg
[3]; [8]
  Activity: 1,638,840 AU/ml
  Increase in amount of protein vs. control: 1.06
  Protein Concentration: 0.32 mg/mL
  Protein Produced from 1 liter Culture Fluid: 105.6 mg
  Specific Activity: 5,121,375 Au/mg
[3]; [9]
  Activity: 1,638,840 AU/ml
  Increase in amount of protein vs. control: 1.06
  Protein Concentration: 0.32 mg/mL
  Protein Produced from 1 liter Culture Fluid: 105.6 mg
  Specific Activity: 5,121,375 Au/mg
[3]; [10]
  Activity: 6,533,600 AU/ml
  Increase in amount of protein vs. control: 5.2
  Protein Concentration: 1.56 mg/mL
  Protein Produced from 1 liter Culture Fluid: 514.8 mg
  Specific Activity: 4,201,025 Au/mg
[3]; [11]
  Activity: 6,553,600 AU/ml
  Increase in amount of protein vs. control: 5.2
  Protein Concentration: 1.56 mg/mL
  Protein Produced from 1 liter Culture Fluid: 514.8 mg
  Specific Activity: 4,201,025 Au/mg
[3]; [12]
  Activity: 13,107,200 AU/ml
  Increase in amount of protein vs. control: 7
  Protein Concentration: 2.1 mg/mL
  Protein Produced from 1 liter Culture Fluid: 693 mg
  Specific Activity: 6,241,523 Au/mg
[3]; LWP 760 + LWP 320, 0.01 mg peptide added after about 4 hours, listed as signal peptide from LWP 760
  Protein Produced from 1 liter Culture Fluid: approximately 693 Mg
[3]; [13]
  Activity: 6,553,600 AU/ml
  Increase in amount of protein vs. control: 5.2
  Protein Concentration: 1.56 mg/mL
  Protein Produced from 1 liter Culture Fluid: 514.8 mg
  Specific Activity: 4,201,025 Au/mg
[3]; [14]
  Activity: 1,638,840 AU/ml
  Increase in amount of protein vs. control: 0.9
  Protein Concentration: 0.28 mg/mL
  Protein Produced from 1 liter Culture Fluid: 92.4 mg
  Specific Activity: 5,853,000 Au/mg
[3]; [15]
  Activity: 1,638,840 AU/ml
  Increase in amount of protein vs. control: 1.16
  Protein Concentration: 0.35 mg/mL
  Protein Produced from 1 liter Culture Fluid: 115.5 mg
  Specific Activity: 4,682,400 Au/mg
[3]; [16]
  Activity: 1,638,840 AU/ml
  Increase in amount of protein vs. control: 1.16
  Protein Concentration: 0.35 mg/mL
  Protein Produced from 1 liter Culture Fluid: 115.5 mg
  Specific Activity: 4,682,400 Au/mg
[3]; [17]
  Activity: 1,638,840 AU/ml
  Increase in amount of protein vs. control: 1.16
  Protein Concentration: 0.35 mg/mL
  Protein Produced from 1 liter Culture Fluid: 115.5 mg
  Specific Activity: 4,682,400 Au/mg
[3]; [18]
  Activity: 1,638,840 AU/ml
  Increase in amount of protein vs. control: 1
  Protein Concentration: 0.30 mg/mL
  Protein Produced from 1 liter Culture Fluid: 99 mg
  Specific Activity: 5,462,666 Au/mg
[3]; [19]
  Activity: 1,638,840 AU/ml
  Increase in amount of protein vs. control: 1
  Protein Concentration: 0.30 mg/mL
  Protein Produced from 1 liter Culture Fluid: 99 mg
  Specific Activity: 5,462,666 Au/mg
[3]; [20]
  Activity: 1,638,840 AU/ml
  Increase in amount of protein vs. control: 1
  Protein Concentration: 0.30 mg/mL
  Protein Produced from 1 liter Culture Fluid: 99 mg
  Specific Activity: 5,462,666 Au/mg
[3]; [21]
  Activity: 1,638,840 AU/ml
  Increase in amount of protein vs. control: 1
  Protein Concentration: 0.30 mg/mL
  Protein Produced from 1 liter Culture Fluid: 99 mg
  Specific Activity: 5,462,666 Au/mg
[3]; [22]
  Activity: 1,638,840 AU/ml
  Increase in amount of protein vs. control: 1
  Protein Concentration: 0.3 mg/mL
  Protein Produced from 1 liter Culture Fluid: 99 mg
  Specific Activity: 5,462,666 Au/mg
[3]; [23]
  Activity: 1,638,840 AU/ml
  Increase in amount of protein vs. control: 1
  Protein Concentration: 0.30 mg/mL
  Protein Produced from 1 liter Culture Fluid: 99 mg
  Specific Activity: 5,462,666 Au/mg
[3]; [24]
  Activity: 1,638,840 AU/ml
  Increase in amount of protein vs. control: 1
  Protein Concentration: 0.30 mg/mL
  Protein Produced from 1 liter Culture Fluid: 99 mg
  Specific Activity: 5,462,666 Au/mg
[3]; [25]
  Activity: 1,638,840 AU/ml
  Increase in amount of protein vs. control: 1
  Protein Concentration: 0.30 mg/mL
  Protein Produced from 1 liter Culture Fluid: 99 mg
  Specific Activity: 5,462,666 Au/mg
[3]; [26]
  Activity: 1,638,840 AU/ml
  Increase in amount of protein vs. control: 1.03
  Protein Concentration: 0.31 mg/mL
  Protein Produced from 1 liter Culture Fluid: 102.3 mg
  Specific Activity: 5,286,580 Au/mg
[3]; [27]
  Activity: 1,638,840 AU/ml
  Increase in amount of protein vs. control: 1.03
  Protein Concentration: 0.31 mg/mL
  Protein Produced from 1 liter Culture Fluid: 102.3 mg
  Specific Activity: 5,286,580 Au/mg
[3]; [28]
  Activity: 1,638,840 AU/ml
  Increase in amount of protein vs. control: 1.03
  Protein Concentration: 0.31 mg/mL
  Protein Produced from 1 liter Culture Fluid: 102.3 mg
  Specific Activity: 5,286,580 Au/mg
[3]; [29]
  Increase in amount of protein vs. control: 1.03
  Protein Concentration: 0.31 mg/mL
  Protein Produced from 1 liter Culture Fluid: 102.3 mg
  Specific Activity: 5,286,580 Au/mg
